According to patent publication US20220249528A1 (CELGENE CORPORATION, priority 2019, published 2022):
Peptide text beside a SMILES is read from it. * marks the point of attachment. Cbz = O=C(OCc1ccccc1)*; CH2F = FC*

Key:
[1] = tested on: ATF3 and SCD mRNA in MV4-11 cells; assay: Real-time PCR validation of ATF3 and SCD expression; type: cell-based; settings: for ATF3 expression: FIG. 14C; for SCD expression: 24 hours, FIG. 14D
Procedure: At this time, cells were recovered and RNA was extracted using Qiagen RNeasy kit according to manufacturer's instructions. Reverse transcription was performed using SuperScript VILO cDNA synthesis kit. Validated Taqman probes and Taqman Fast Advanced Master Mix was used with Viia 7 Real-Time PCR System (Invitrogen/ThermoFisher Scientific, Waltham, Mass.) to quantify transcripts of ATF3, SCD, and 18S mRNA.

MV4-11 cells = assay: RNASeq analysis, differential expression and KEGG pathways; type: cell-based
Description: After treatment, cells were recovered, washed once in PBS, and flash frozen as cell pellets. Cell pellets were sent to Canopy Biosciences for RNA extraction and library preparation and sequencing. RNA was extracted using the Qiagen RNeasy Mini Kit according to manufacturer's instructions. A modified protocol was used to preserve miRNA species. […] MCL1 RNA levels in other cell lines were quantified by RNASeq using standard methods.
Libraries were multiplexed and sequenced using Illumina HiSeq. All gene counts were then imported into the R/Bioconductor package EdgeR and TMM normalization size factors were calculated to adjust for samples for differences in library size. Ribosomal genes and genes not expressed in the smallest group size minus one samples greater than one count-per-million were excluded from further analysis. Differential expression analysis was then performed to analyze for differences between conditions and the results were filtered for only those genes with Benjamini-Hochberg false-discovery rate adjusted p-values less than or equal to 0.05. Global perturbations in known Gene Ontology (GO) terms and KEGG pathways were detected using the R/Bioconductor package GAGE to test for changes in expression of the reported log 2 fold-changes reported by Limma in each term versus the background log 2 fold-changes of all genes found outside the respective term. The R/Bioconductor package heatmap and Pathview was used to display heatmaps or annotated KEGG graphs across groups of samples for each GO term or KEGG pathway (respectively) with a Benjamini-Hochberg false-discovery rate adjusted p-value less than or equal to 0.05. To find differentially expressed genes, the raw counts were variance stabilized with the R/Bioconductor package DESeq2.

22 AML cell lines = assay: Cell viability and 5-azacytidine-venetoclax synergy in AML cell line panel; type: cell-based; settings: venetoclax-resistant lines Kasumi-1, Kasumi-2 and NOMO-1
MCL-1 in KG1a cells = assay: Western blot of MCL-1 degradation; type: cell-based; settings: FIG. 12A
Procedure: (§1) Lysates were quantified using a bicinchoninic acid (BCA) kit (Piece/Thermo Fisher, Waltham, Mass.). 20 to 30 μg protein was resolved on a 4-12% SDS-PAGE gel, transferred to PVDF membranes (80V/90 minute by wet-transfer), and blocked with Oddysey TBS blocking buffer for 1 hour and then probed with appropriate primary antibodies overnight at 4° C. using dilution as recommended by manufacturer. Membranes were washed three times for a total of 30 minutes and then incubated with secondary antibodies at room temperature in the dark for 1 hour. After another three washes, Odyssey infrared imaging system and companion software (LI-COR biosciences, Lincoln, Nebr., USA) were used to scan immunoblot membranes and to quantify band intensity according to the manufacturer's instructions. The ratio of proteins of interest to loading control in treated samples was normalized to the corresponding ratio in untreated cells.

MCL-1 in THP-1 cells = assay: Western blot of MCL-1 degradation; type: cell-based; settings: THP-1, by 24 hours
Procedure: as §1

MCL-1 in OCI-AML2 cells = assay: Western blot of MCL-1 degradation; type: cell-based; settings: OCI-AML2, FIG. 12D
Procedure: as §1

MV4-11 xenograft model = assay: Disseminated AML xenograft survival study; type: in vivo, mice; settings: 5-azacytidine LEED regimen 1 mg/kg qd×5×3, alone or with venetoclax or midostaurin 100 mg/kg qd×21; vehicle 29.5
Procedure: LEED models oral administration of AZA, while HELD models intravenous or subcutaneous administration of AZA.
The animals were fed ad libitum water (reverse osmosis, 1 ppm Cl), and NIH 31 Modified and Irradiated Lab Diet® consisting of 18.0% crude protein, 5.0% crude fat, and 5.0% crude fiber. […] (68-72° F.) and 40-60% humidity.
On each day of dosing, an appropriate amount of gilteritinib was dissolved in 0.5% methylcellulose in DI water to yield a dosing solution at 0.4 mg/mL. Each week, an appropriate amount of venetoclax was dissolved in 10% ethanol:30% PEG400:60% phosal 50 propylene glycol to yield a dosing solution at 10 mg/mL. […]
Animals were monitored individually for an endpoint of moribundity due to progression of the leukemia. […] The time to endpoint (TTE), in days, was recorded for each mouse that died of its disease or was euthanized due to extensive tumor progression. […] The median TTE value was calculated for each group. The median TTE of treated mice was expressed as a percentage of the median TTE of the control mice (% T/C), and the increase in life span (ILS) was calculated as: ILS=% T/C−100%, where T=median TTE treated, and C=median TTE control. […]
Animals were weighed daily on Days 1-5, then twice per week until the completion of the study. […] Group mean body weight loss also was monitored as per protocol. […] Survival was analyzed by the Kaplan-Meier method, based on TTE values.

MCL-1 in MV4-11 cells = assay: Western blot of MCL-1 degradation; type: cell-based; settings: 20 μM Z-VAD-FMK 1 hour before 5-azacytidine for 16 hours, FIG. 13B
Procedure: as §1, with “cells. Antibodies used for immunoblotting were purchased from the following sources: BCL-2 (sc-7382), MCL1-(sc-819) from Santa Cruz Biotechnology (Dallas, Tex., USA, Bim (2819), caspase-3 (9664) from Cell Signaling Technology; beta-Actin (A2228) from Sigma-Aldrich; DNMTI (ab188453) from AbCam; IRDye 680 goat anti-rabbit and IRDye 800 goat anti-mouse secondary antibodies (#925-68073 and #925-32212) were purchased from Li-COR Biosciences (Lincoln, Nebr.). […]” for “cells.”

[2] = 1 μM 5-azacytidine vs PBS, 24 h

SMILES | ATF3 expression ([1]; 0.3 μM, 24 or 48 hours) | SCD expression ([1]; 3 μM) | ATF3 expression ([1]; 0.3, 1 or 3 μM, 24 and 48 hours) | SCD expression ([1]; low concentrations) | Mean logFC, KEGG pathway Metabolic pathways (MV4-11 cells; [2]) | Mean logFC, KEGG pathway Taste transduction (MV4-11 cells; [2]) | ATF3 expression increase (MV4-11 cells; RNAseq, 48 hours after 5-azacytidine treatment) | effect of co-treatment on venetoclax resistance (22 AML cell lines) | start of MCL-1 degradation after treatment (MCL-1 in KG1a cells) [h] | extent of MCL-1 degradation (MCL-1 in THP-1 cells) | MCL-1 degradation (MCL-1 in OCI-AML2 cells) | median survival (MV4-11 xenograft model) | effect on MCL-1 degradation by 5-azacytidine (MCL-1 in MV4-11 cells)
Nc1ncn([C@@H]2O[C@H](CO)[C@@H](O)[C@H]2O)c(=O)n1 [5-azacytidine, 4-amino−1-B-D-ribofuranosyl-1,3,5-triazin-2(1H)-one] | not sufficient to induce ATF3 expression | decreased rapidly within 24 hours | increased in a time- and concentration-dependent manner | not affected | −5.29 | 2.44 | two-fold | reversal of venetoclax resistance | 6 | incomplete degradation by 24 hours | did not lead to any degradation of MCL-1 | 35 | 
COC(=O)C[C@H](NC(=O)[C@H](C)NC(=O)[C@@H](NC(=O)OCc1ccccc1)C(C)C)C(=O)CF [Z-VAD-FMK] (Cbz-Val-Ala-Asp(OMe)-CH2F) |  |  |  |  |  |  |  |  |  |  |  |  | partially ablated
